Measured values taken from patent US6297032A, “Recombinant cephalosporin C amidohydrolase in cephalosporin biosynthesis” (Glaxo Group Limited, priority 1994, dated 2001).

Key:
[1] = test system: cephalosporin C amidohydrolase; experiment: Substrate comparison, assay response by HPLC, enzyme from NM522/pVS44 cells; type: biochemical, Pseudomonas vesicularis
Method: (§1) The enzyme reaction mix was derivatised as above a 20 μl sample applied in a mobile phase consisting of 35% acetonitrile, 0.1% trifluoroacetic acid in HPLC-grade water onto a 15 cm Hypersil ODS 5μ column at 32° C. with a flow rte of 1.5 ml/min. Detection by fluorescence spectroscopy was as above. In this system authentic 7ACA standard has a retention time of 6.7 minutes, with a minor degradation peak at
(a) Assay response is given as product yield standardised to the 7ACA produced from GL-7ACA under equivalen reaction conditions. For this comparison it is assumed that products have molar extinction coefficients equivalent to 7ACA, such that the response was calculated directly from product peak area on HPLC. The standard reaction used 100 μl enzyme prepared by the procedure of preparation of 2(d) from NM522/p/VS44 cells, with 10 mg/ml substrate in overnight reaction at 27° C.
(b) Assay response obtained using 10 μl of above enzyme extract, with 3 mg/ml substrate in 2 hour reaction at 27° C. The actual response was then extrapolated to equivalent conditions to those used with the more slowly hydrolysed substrates.

[2] = test system: cephalosporin C amidohydrolase; experiment: Enzyme activity assay, NM522/pVS44 extract after DE52 cellulose; type: biochemical, Pseudomonas vesicularis; settings: 10 μl extract; 50 mg/ml cephalosporin C; 3 hour incubation at 27° C.
Method: (§2) Substrate buffer consists of 50 mM sodium phosphate buffer pH 7.0 containing 13.5 mg/ml cloxacillin and GL-7CA (3 mg/ml) or cephalosporin C (10 mg/ml). Cell suspensions or semi-purifed enzyme samples were incubated in substrate buffer for up to 24 hours at 37° C. At a suitable time a 100 μl aliquot of fluram reagent was then added, mixed and the sample incubated at room temperture for 1 hour. Fluram reagent consists of fluroescamine (Sigma Chemical Co) at 1 mg/ml in dry acetone. The presence of 7ACA in the reaction mix was detected after derivatisation of the free primary amine group by using fluorescence spectroscopy at an excitation wave length of 378 nm and emission detection at 498 nm in a flow injection assay system with 10% acetone in water as carrier fluid.
Cephalosporin C amidohydrolase enzyme activity was recovered from NM522/pVS44 cells using procedures of preparation 1(b) and 1(c) to the cell free extract stage followed by chromatography on DE52 cellulose as described above. In a typical assay using the method of preparation 1(c), a 10 μl extract produced 12 μg/ml 7ACA from 50 mg/ml cephalosporin C in a 3 hour incubation at 27° C. This represents approximately 30-fold improvement over the level of activity obtained using B1113 strain extract aat an equivalent stage of purification.

[3] = test system: gram-negative microorganisms; settings: against gram-negative microorganisms; cited from earlier work
[4] = test system: cephalosporin C amidohydrolase; experiment: Enzyme activity assay, E. coli B1113 extract after DE52 cellulose; type: biochemical, Pseudomonas vesicularis; settings: extract 50
Method: as §2
E. coli B1113 was grown on TSB agar plates following the method of preparation 1(b). The confluent cell growth was processed for amidohydrolase recovery essentially following the procedure of preparation 1(d) to the cell-free extract stage.
Amidohydrolase activity was further purified by application of the cell-free extract to a DE52 cellulose column (Whatman Ltd, Maidstone, Kent ME14 2ME). The majority of proteins in the extract bind to the matrix and amidohydrolase activity is not retained. […]

[5] = test system: cephalosporin C amidohydrolase; experiment: Enzyme activity assay, partially purified amidohydrolase recovered from B965; type: biochemical, Pseudomonas vesicularis B965
Method: as §2, with “Cell” for “Substrate buffer consists of 50 mM sodium phosphate buffer pH 7.0 containing 13.5 mg/ml cloxacillin and GL-7CA (3 mg/ml) or cephalosporin C (10 mg/ml). Cell”
B965 cells were cultured on TSB agar plates essentially by the method of preparation 1(b). The cells were harvested into enzyme buffer, washed and finally resuspended in 10 ml chilled enzyme buffer. Enzyme buffer is 100 mM sodium phosphate buffer (pH 7.0) containing 1 mM DTT and 1 mM benzamidine. The cells were lysed by sonication using a 650W output sonicator (model W-380, Heat System Ultrasonics Inc, 1938 New Highway, Farmingdale, N.Y. 11735, USA) on power settings 2-3, 50% cycle, for 12 , minutes . The extract was clarifed by centrifugation at 18,000 g for 15 minutes at 4° C. The supernatant was recovered, adjusted to 10 ml volume in enzyme buffer, then solid ammonium sulphate was added slowly with gentle mixing at 4° C. to 30% saturation. […]

[6] = test system: Immobilised amidohydrolase; experiment: Immobilised amidohydrolase activity (pH stat, DMAB assay); type: biochemical, Pseudomonas vesicularis; settings: for Activity μmole 7ACA/min/g dry weight immobilised enzyme / Activity μmole/min/g wet weight immobilised enzyme: 50 mg/ml substrate in water, 25° C., pH 8.0
Method: E. coli strain NM522/pVS 44 was grown on TSB medium supplemented with 10 μg/ml choramphenicol and solidified with 1.5% w/v agar. Growth was for 2-4 days at 27.5° C. Cell paste was recovered by scraping from the agar surface, resuspended and washed in lysis buff (10 mM MOPS pH 8.0; 1 mM DTT; 1 mM benzamidine). About 65 g cell paste was lysed in 350 ml ice cold buffer by sonication (650W output, power setting 4, 5 passes through a continuous flow head at 35 ml/min flow, sample chilled on ice). The lysate was clarified by centrifugation (15,000 rpm, 30 min) to yield 3120 mg soluble protein. This material was passed over a 300 ml column of pre-equlibrated DE52 cellulose. Fractions eluting between 100 ml-500 ml after loading contained amidohydrolase activity in a total of 398 mg protein. The protein was concentrated using a centrifugal membrance device (Centriprep 30 concentrator, Amicon).
The concentrated extract (300 mg protein, 12.54 ml) was adjusted to 100 mM phosphate buffer pH 8.0:1 mM DTT; 1 mM benzamidine, and mixed with 3.0 g (dry weight) oxirane-linked polyacrylic matrix (Eupergit C: Rohm Pharma GmbH, D-6100 Darmstadt Germany). Immobilisation, monitored by protein removal from the liquid phase, was complete by 116 hours. About 120 mg protein became covalently linked to the support. Excess protein was removed by washing in the phosphate buffer.
Immobilised amidohydrolase activity was monitored by allowing the enzyme catalysed reaction to occur using an automated control system set to detect and maintain the reaction pH at a set point (a pH stat system). A pH monitor was set such that a fall in pH from the set point triggered a peristaltic pump to allow regulated dosing of alkali titrant.
A reaction volume of 50 ml contained 50 mg/ml substrate (GL-7ACA or Ceph C) in water maintained at 25° C. The reaction mix was adjusted to pH 8.0 using 2M NaOH as titrant before addition of about 3 g dry weight (12 g wet weight) immobilised enzyme to initate the reaction. The suspension was stirred using an overhead paddle type stirrer. Reaction progress was monitored by titrant addition rate and sampling at intervals. The samples were assayed for 7ACA by the DMAB method as in preparation 1(a). By this method the following activities were measured. (Table 8.)

[7] = test system: cephalosporin C amidohydrolase; experiment: Enzyme activity assay, B965 whole cells (7ACA production); type: biochemical, Pseudomonas vesicularis B965
Method: as §2, §1
In typical experiments using these conditions B965 cells sufficient to fill a 10 μl inoculating loop produced 320 μg/ml 7ACA in 18 hours incubation GL-7ACA as substrate. […]

[8] = test system: cephalosporin C amidohydrolase; experiment: Cephalosporin C amidohydrolase enzyme properties, kinetic; type: biochemical, Pseudomonas vesicularis B965
Method: as §2
Further purification of the amidohydrolase was undertaken using an FPLC system (Pharmacia LKB Biotechnology, S-751 82 Uppsala, Sweden) in order to define the properties of the enzyme.
Material recovered from the 30-60% saturation ammonium sulphate precipitate was resuspended in MOPS buffer (10 mM MOPS pH8.0, 1 mM benzamidine). The solution was clarified by brief centrifugation followed by filration through a 0.2 micron filter. A 5 ml aliquot of enzyme mixture was applied to an HR5/5 MonoQ column pre-equilibrated with MOPS buffer. Amidohydrolase activity was recovered in the eluate between 2-4 after loading. This fraction was adjusted to 30% saturation in ammonium sulphate and loaded to an HR10/30 phenylsuperose column. Elution of protein was achieved using a salt gradient regime varying from 30%-0% saturation in ammonium sulphate with a running buffer consisting of 100 mM sodium phosphate pH7.0, 1 mM DTT. Amidohydrolase activity was recovered at between 18.5%-15.0% saturation of ammonium sulphate under these conditions.

[9] = 100 μl enzyme from NM522/pVS44 cells, 10 mg/ml substrate, overnight reaction at 27° C., standardised to 7ACA produced from GL-7ACA

Question: For `N[C@H](CCCC(=O)N[C@@H]1C(=O)N2C(C(=O)O)=C(CO)CS[C@H]12)C(=O)O` [deacetylcephalosporin C], which “Assay response (% rate of 7ACA)” value [1, 9] is on record?
Answer: The value was 9.8%.

Question: What does the source list for `CC(=O)OCC1=C(C(=O)O)N2C(=O)[C@@H](NC(=O)CCC[C@@H](N)C(=O)O)[C@H]2SC1` [Ceph C, cephalosporin C]?
Answer: 7 ACA Produced [2]: 12 µg/mL; activity as an antibiotic [3]: some activity; 7 ACA Produced ([4]; Ceph C 10 mg/ml, 4 hr): 4.5 µg/mL; 7 ACA Produced ([5]; extract 80 μl, Ceph C 50 mg/ml, 8 hr): 14.5 µg/mL; Activity μmole 7ACA/min/g dry weight immobilised enzyme [6]: 0.95 μmole 7ACA/min/g dry weight im; Activity μmole/min/g wet weight immobilised enzyme [6]: 0.24 μmole/min/g wet weight immobil; maximum conversion ([6]; cephalosporin C substrate, 22 hours, immobilised enzyme): 1.7%; 7 ACA Produced ([7]; double the volume of B965 cells, cephalosporin C as substrate, overnight incubation): 5 µg/mL; Specific activity maximum ([8]; using Ceph C substrate): 0.141 μmol 7ACA/min/mg enzyme; Assay response (% rate of 7ACA) [1, 9]: 8.0%

Question: For `CC(=O)OCC1=C(C(=O)O)N2C(=O)[C@@H](NC(=O)CCCC(=O)O)[C@H]2SC1` [GL-7ACA, 7-β-(4-carboxybutanamido)-cephalosporanic acid], which “7 ACA Produced” value ([4]; GL-7ACA 3 mg/ml, 3 hr) is on record?
Answer: The value was 102 µg/mL.

Question: What about the “7 ACA Produced” value ([5]; extract 10 μl, GL-7ACA 2 mg/ml, 4 hr) of the same compound?
Answer: The value was 22 µg/mL.

Question: And the “Activity μmole 7ACA/min/g dry weight immobilised enzyme” value [6]?
Answer: The value was 4.7 μmole 7ACA/min/g dry weight im.

Question: And the “Activity μmole/min/g wet weight immobilised enzyme” value [6]?
Answer: The value was 1.2 μmole/min/g wet weight immobil.

Question: And the conversion achieved ([6]; GL-7ACA as substrate, immobilised enzyme)?
Answer: Its conversion achieved is 9.0%.

Question: What about the 7 ACA Produced ([7]; B965 cells filling a 10 μl inoculating loop, GL-7ACA as substrate, 18 hours incubation) of the same compound?
Answer: The 7 ACA Produced was 320 µg/mL.

Question: And the Km ([8]; GL-7ACA substrate at 1.2-7.2 mM)?
Answer: Its Km is 2000 to 4000 µM.

Question: And the “Assay response (% rate of 7ACA)” value ([1]; 10 μl enzyme extract, 3 mg/ml substrate, 2 hour reaction at 27° C., extrapolated to equivalent conditions (reference = 100))?
Answer: Its value is 100%.

Question: For `N.N.O=S(=O)(O)O` [ammonium sulphate], which “Inhibitors (inhibitory concentration)” value [8] is on record?
Answer: Its value is > 6 % w/v.

Question: For `O=C(CCCC(NC(=O)c1ccccc1)C(=O)O)N[C@@H]1C(=O)N2C(C(=O)[O-])=C(C[n+]3ccccc3)CS[C@H]12` (some centres unmarked) [benzoylcephalosporin-3-pyridiniummethyl], which “Assay response (% rate of 7ACA)” value [1, 9] is on record?
Answer: The value was 3.5%.

Question: Which “Assay response (% rate of 7ACA)” value [1, 9] does the source give for `CC(=O)OCC1=C(C(=O)O)N2C(=O)[C@@H](NC(=O)CCCC(NC(=O)c3ccccc3)C(=O)O)[C@H]2SC1` (some centres unmarked) [benzoylcephalosporin C] here?
Answer: Its value is 2.8%.

Question: With `CC(=O)OCC1=C(C(=O)O)N2C(=O)[C@@H](NC(=O)CCC(=O)O)[C@H]2SC1` [succinyl-7ACA] as the compound, how does the “Assay response (% rate of 7ACA)” value [1, 9] read?
Answer: The value was 0.8%.
